Results published in the supplement of paper PMC13380429.
± gives the standard deviation of the averaged measurements.

How the values were obtained:
Conditions in all cases: 72 h
HepG2 [1] = assay: drug sensitivity score (DSS) for viability; higher = more toxic; extreme values may be limits of the assay
Calu-3 [2] = assay: as above
Vero E6 [3] = assay: as above
U2OS [4] = assay: as above
Caco-2 [5] = assay: as above
HepG2 [6] = assay: cell viability relative to DMSO; higher = less toxic
Calu-3 [7] = assay: as above
Vero E6 [8] = assay: as above
U2OS [9] = assay: as above
Caco-2 [10] = assay: as above
HepG2 [11] = assay: relative viability EC50 (midpoint between 100% and the lowest measured viability); higher = less toxic
Calu-3 [12] = assay: as above
Vero E6 [13] = assay: as above
U2OS [14] = assay: as above
Caco-2 [15] = assay: as above

Nc1ncnc2c1ncn2[C@@H]1O[C@H](CO)[C@@H](O)[C@H]1O [adenosine]
drug sensitivity score (HepG2 [1]): 0.1 ± 0.14
drug sensitivity score (Calu-3 [2]): 0
drug sensitivity score (Vero E6 [3]): 0
drug sensitivity score (U2OS [4]): 0
drug sensitivity score (Caco-2 [5]): 0
cell viability (HepG2 [6]; 1 nM): 98.05 ± 0.21%
cell viability (HepG2 [6]; 10 nM): 102 ± 6.9%
cell viability (HepG2 [6]; 100 nM): 96.7 ± 6.6%
cell viability (HepG2 [6]; 1000 nM): 110 ± 9.2%
cell viability (HepG2 [6]; 10000 nM): 88 ± 9.1%
cell viability (Calu-3 [7]; 1 nM): 107%
cell viability (Calu-3 [7]; 10 nM): 88.4%
cell viability (Calu-3 [7]; 100 nM): 96.3%
cell viability (Calu-3 [7]; 1000 nM): 96.1%
cell viability (Calu-3 [7]; 10000 nM): 95.2%
cell viability (Vero E6 [8]; 1 nM): 102.5 ± 0.99%
cell viability (Vero E6 [8]; 10 nM): 102 ± 2.3%
cell viability (Vero E6 [8]; 100 nM): 97.3 ± 3.5%
cell viability (Vero E6 [8]; 1000 nM): 103.5 ± 0.35%
cell viability (Vero E6 [8]; 10000 nM): 99.95 ± 0.35%
cell viability (U2OS [9]; 1 nM): 102 ± 1.8%
cell viability (U2OS [9]; 10 nM): 98 ± 3%
cell viability (U2OS [9]; 100 nM): 98.2 ± 3.2%
cell viability (U2OS [9]; 1000 nM): 98.5 ± 2.2%
cell viability (U2OS [9]; 10000 nM): 104 ± 5.9%
cell viability (Caco-2 [10]; 1 nM): 103 ± 2.4%
cell viability (Caco-2 [10]; 10 nM): 100 ± 4.7%
cell viability (Caco-2 [10]; 100 nM): 97.9 ± 1.8%
cell viability (Caco-2 [10]; 1000 nM): 94.5 ± 1.1%
cell viability (Caco-2 [10]; 10000 nM): 95.2 ± 8.6%
relative viability EC50 (HepG2 [11]): > 10 µM
relative viability EC50 (Calu-3 [12]): > 10 µM
relative viability EC50 (Vero E6 [13]): > 10 µM
relative viability EC50 (U2OS [14]): > 10 µM
relative viability EC50 (Caco-2 [15]): > 10 µM

O=C(NCc1ccc2c(c1)OCO2)c1c(Cl)cccc1Cl [alda-1]
drug sensitivity score (HepG2 [1]): 0
drug sensitivity score (Calu-3 [2]): 0
drug sensitivity score (Vero E6 [3]): 0
drug sensitivity score (U2OS [4]): 0
drug sensitivity score (Caco-2 [5]): 0
cell viability (HepG2 [6]; 1 nM): 92%
cell viability (HepG2 [6]; 10 nM): 105%
cell viability (HepG2 [6]; 100 nM): 99.8%
cell viability (HepG2 [6]; 1000 nM): 101%
cell viability (HepG2 [6]; 10000 nM): 95.9%
cell viability (Calu-3 [7]; 1 nM): 91.7%
cell viability (Calu-3 [7]; 10 nM): 100%
cell viability (Calu-3 [7]; 100 nM): 109%
cell viability (Calu-3 [7]; 1000 nM): 102%
cell viability (Calu-3 [7]; 10000 nM): 108%
cell viability (Vero E6 [8]; 1 nM): 94.2%
cell viability (Vero E6 [8]; 10 nM): 105%
cell viability (Vero E6 [8]; 100 nM): 98.8%
cell viability (Vero E6 [8]; 1000 nM): 91.2%
cell viability (Vero E6 [8]; 10000 nM): 98.3%
cell viability (U2OS [9]; 1 nM): 103%
cell viability (U2OS [9]; 10 nM): 99.8%
cell viability (U2OS [9]; 100 nM): 99%
cell viability (U2OS [9]; 1000 nM): 100%
cell viability (U2OS [9]; 10000 nM): 100%
cell viability (Caco-2 [10]; 1 nM): 93%
cell viability (Caco-2 [10]; 10 nM): 91.3%
cell viability (Caco-2 [10]; 100 nM): 100%
cell viability (Caco-2 [10]; 1000 nM): 93.1%
cell viability (Caco-2 [10]; 10000 nM): 99.1%
relative viability EC50 (HepG2 [11]): > 10 µM
relative viability EC50 (Calu-3 [12]): > 10 µM
relative viability EC50 (Vero E6 [13]): > 10 µM
relative viability EC50 (U2OS [14]): > 10 µM
relative viability EC50 (Caco-2 [15]): > 10 µM

C=C1/C(=C\C=C2/CCC[C@]3(C)[C@@H]([C@H](C)CCCC(C)C)CC[C@@H]23)C[C@@H](O)C[C@@H]1O [alfacalcidol]
drug sensitivity score (HepG2 [1]): 0
drug sensitivity score (Calu-3 [2]): 0
drug sensitivity score (Vero E6 [3]): 0
drug sensitivity score (U2OS [4]): 0
drug sensitivity score (Caco-2 [5]): 1.5
cell viability (HepG2 [6]; 1 nM): 91.4%
cell viability (HepG2 [6]; 10 nM): 105%
cell viability (HepG2 [6]; 100 nM): 98.4%
cell viability (HepG2 [6]; 1000 nM): 108%
cell viability (HepG2 [6]; 10000 nM): 102%
cell viability (Calu-3 [7]; 1 nM): 90.9%
cell viability (Calu-3 [7]; 10 nM): 94.3%
cell viability (Calu-3 [7]; 100 nM): 99.6%
cell viability (Calu-3 [7]; 1000 nM): 87.5%
cell viability (Calu-3 [7]; 10000 nM): 101%
cell viability (Vero E6 [8]; 1 nM): 90.2%
cell viability (Vero E6 [8]; 10 nM): 98.3%
cell viability (Vero E6 [8]; 100 nM): 92.2%
cell viability (Vero E6 [8]; 1000 nM): 97.1%
cell viability (Vero E6 [8]; 10000 nM): 101%
cell viability (U2OS [9]; 1 nM): 94.1%
cell viability (U2OS [9]; 10 nM): 93.7%
cell viability (U2OS [9]; 100 nM): 99%
cell viability (U2OS [9]; 1000 nM): 89.1%
cell viability (U2OS [9]; 10000 nM): 91.5%
cell viability (Caco-2 [10]; 1 nM): 98.2%
cell viability (Caco-2 [10]; 10 nM): 98.1%
cell viability (Caco-2 [10]; 100 nM): 92.5%
cell viability (Caco-2 [10]; 1000 nM): 85%
cell viability (Caco-2 [10]; 10000 nM): 85.9%
relative viability EC50 (HepG2 [11]): > 10 µM
relative viability EC50 (Calu-3 [12]): > 10 µM
relative viability EC50 (Vero E6 [13]): > 10 µM
relative viability EC50 (U2OS [14]): > 10 µM
relative viability EC50 (Caco-2 [15]): > 10 µM
